Measured values published in patent US6599525B2, “Dressings and bandages comprising same” (Johnson & Johnson Consumer Companies, Inc., priority 1998, dated 2003).

Key:
Assay in all cases: Microbiocidal activity of bandage samples on inoculated agar
Type in all cases: cell-based
Details in all cases: benzalkonium chloride in the dressing and bandage of the invention
Escherichia coli = test system: Escherichia coli
Description: (§1) The purpose of this test was to determine whether the efficacy of the benzalkonium chloride contained within the absorbent substrate of a bandage of the invention would be adversely affected when a portion of the skin-facing surface of the absorbent substrate contained a discontinuous coating of an ointment-like composition. The specimens tested were the bandages of Example 4 comprising the dressing of Example 2. Test samples 2.5 cm×2 cm were cut from the bandages so as to remove the longitudinally extending adhesive strip portions that extended beyond the boundary of the dressing portion of the bandage.
(§2) The microbiocidal activity of the benzalkonium chloride in the dressing was tested by placing samples of the dressing on a peptone-casein-soya agar growth medium contained in petri dishes having an area of 64 square centimeters that had been inoculated with certain microorganisms. The test samples were placed in the dishes so that the skin facing side of the dressing contacted the agar medium. The following microorganisms were used:
(§3) The bactericidal suspensions for seeding of the prepared petri dishes were taken from cultures in their exponential growth phase. The concentration of each suspension was determined according to an AENOR (Association Francaise Normalisation) standard method using spectrophotometry at 620 nm. Suspensions of the desired concentration were then prepared by successive dilution to give seeding stock solutions.
(§4) A standard volume of the seeding stock solution was placed in the center of each prepared petri dish and spread with the help of a spreader. The inoculated plates were dried off in a drying oven at 37° C. for 30 minutes. The dressings were placed on top of the medium in the manner described above, and the petri dishes were then incubated for a total of 24 to 48 hours at 37° C. Dishes were removed from the incubator periodically and the extent of bacterial growth underneath the dressing was measured.

Mycobacterium smegmatis = test system: Mycobacterium smegmatis
Description: as §1, §2, §3, §4

Staphylococcus aureus = test system: Staphylococcus aureus
Description: as §1, §2, §3, §4

Streptococcus foecalis = test system: Streptococcus foecalis
Description: as §1, §2, §3, §4

Measured: bactericidal activity (summary in words)

benzalkonium chloride
significant bactericidal activity: Escherichia coli | Mycobacterium smegmatis | Staphylococcus aureus | Streptococcus foecalis
